# US20240416143A1, “PHOTONIC ANTIMICROBIAL WOUND SURFACE DRESSING” (The General Hospital Corporation, priority 2021, published 2024)
# Key:
# [1] = in vivo; cited from earlier work
# E. coli biofilm = experiment: Photoinactivation of 48-hour in vitro biofilms by adjuvant/antibiotic + antimicrobial blue light; format: cell-based, Escherichia coli
# Description: The bacterial suspension was grown in a shaking incubator overnight in BHI broth. Cells were collected by centrifugation at 4,000 rpm for 5 minutes and suspended in PBS at a density of 10^6 CFU/mL. Then, the biofilms were grown for 48 hours (unless otherwise specified) in 96-well microtiter plates as described previously [Ref. 27], with a renewal of the media every 24 hours. Following the 48-hour biofilm growth, fresh 200 μL of PBS with or without menadione in different concentrations were added to the wells and the biofilms were incubated in the dark at 25° C. for 1 hour: 0, 0.5, 1, and 2 μg/mL for MRSA USA300, AF0001, IQ0064; 0, 1, 10, 30 and 50 μg/mL for P. aeruginosa PA01; and 0, 100, and 150 μg/mL for E. coli ATCC 25922. After that, the control and the menadione-treated biofilms were maintained without irradiation (“menadione/dark”). Simultaneously, the aBL was delivered to the other biofilm groups testing different power densities (50, 30, 15, and 10 mW/cm^2) while keeping the same radiant exposure of 250 J/cm^2. After the light exposure, the biofilms were carefully washed two times with PBS and 200 μL of PBS was added to each well. Then, the bacterial biofilms in each well were harvested by scratching with a sterile pipette tip and three wells of each group were pooled together in a 1.5 mL microcentrifuge tube. The total volume obtained, 600 μL (3 wells), was sonicated using a Branson 2510 Water Bath Sonicator (Marshall Scientific, LLC) for 5 minutes and the CFU was determined by 10-fold serial dilutions in PBS on BHI agar plates. CFU was counted after overnight incubation at 37° C. Experiments were performed in triplicate.
# A bacterial suspension was grown in a shaking incubator overnight in BHI broth. Cells were collected by centrifugation at 4,000 rpm for 5 minutes and suspended in PBS at a density of 10^6 CFU/mL. Then, the biofilms were grown for 48 hours in 96-well microtiter plates with a renewal of the media every 24 hours. Following the 48-hour biofilm growth, fresh 200 μL of PBS with the tetracyclines minocycline, doxycycline, and demeclocycline in different concentrations were added to the wells and the biofilms were incubated in the dark at 25° C. for 1 hour: 0, 0.25, 0.5, and 1 μg/mL for minocycline; 0, 0.5, 1, and 2 μg/mL for doxycycline; and 0, 0.5, 1, and 2 for demeclocycline. After that, the control and the tetracycline-treated biofilms were maintained without irradiation (“menadione/dark”). […] The total volume obtained, 600 μL (3 wells), was sonicated using a Branson 2510 Water Bath Sonicator (Marshall Scientific, LLC) for 5 minutes and the CFU/mL was determined by 10-fold serial dilutions in PBS on BHI agar plates. CFU was counted after overnight incubation at 37° C.
# S. aureus MN8 = S. aureus MN8 cultured aerobically vs anaerobically; cited from earlier work
# MRSA = experiment: Photoinactivation of planktonic cultures by menadione + antimicrobial blue light; format: cell-based, methicillin-resistant Staphylococcus aureus; conditions: menadione ⅛ MIC + aBL 90 J/cm^2 (50 mW/cm^2), 405 nm
# Description: (§1) The bacterial cells were grown in BHI broth medium shaken overnight. Cells were collected by centrifugation at 4,000 rpm for 5 minutes and suspended in PBS at a density of 10^8 colony-forming units (CFU)/mL (estimated by measuring the optical density at 600 nm; O.D 0.1=10^8 cells/mL). The microbial suspension in PBS was transferred to a 35×12-mm dish and mixed with different concentrations of menadione: 0, 0.5, 1 and 2 μg/mL for MRSA USA300, AF003 and IQ0064; 0, 1, 10 and 30 μg/mL for P. aeruginosa PA01; and 0, 16, 32, 64 and 128 μg/mL for E. coli ATCC 25922. After incubation in the dark at 25° C. for 1 hour, the planktonic suspension of cells at room temperature was irradiated using aBL (405 nm) at 50 mW/cm^2 with different radiant exposures (0-250 J/cm^2). During the aBL irradiation, 40 μL of samples were withdrawn every 15 minutes, and the CFUs were determined by 10-fold serial dilutions in PBS (10-1 to 10-7 dilution factors), plated on BHI agar plates as described previously [Ref. 17]. CFUs were counted after overnight incubation at 37° C. Experiments were performed in triplicate.
# P. aeruginosa = experiment: as above; format: cell-based, Pseudomonas aeruginosa PA01; conditions: menadione ⅛ MIC + aBL 90 J/cm^2 (50 mW/cm^2), 405 nm
# Description: as §1
# [2] = tested on: E. coli biofilms in ex-vivo explants; experiment: Photoinactivation of biofilms in ex vivo porcine partial thickness wounds by menadione + aBL; format: cell-based, Escherichia coli
# Description: Skin was handled and sanitized with 70% isopropanol solution after hair shaving. The explants and inner wounds were created using a 12 mm and 4 mm biopsy punches respectively. The explants were placed in 12 wells plates using a (8 μm pore) inserts (Corning™ Falcon™). 1 mL of DMEM media was added to each well in the plate before the insert. After 24 hours, the inner wounds in the explants were inoculated with 20 μL of 10^8 CFU/mL of bacterial solution. After that, the explants were incubated at 37° C. and 5% CO2 for 48 hours to ensure the growth of a mature bacterial biofilm. The inner wounds of the explants were replenished daily with fresh BHI media to ensure that the wounds are hydrated.
# 48 hours following the inoculation, mature monobacterial biofilms of MRSA, P. aeruginosa, and E. coli were obtained with 8.00 log10 CFU/g per wound bed on each explant. MRSA biofilms in explant were reduced by 0.81 log10 CFU/g after the treatment of just aBL 250 J/cm^2 (50 mW/cm^2). However, MRSA biofilms in ex-vivo porcine skin were reduced by up to 4.18 log10 CFU/g when treated with aBL combined with menadione (200 μg/mL). For MRSA biofilms, the log reduction of mature monobacterial biofilm increased as the menadione concentration increased (see FIGS. 16A-16B). […]
smiles,measurement,setting,value
"CC1=CC(=O)c2ccccc2C1=O [menadione, 2-methyl-1,4-naphthoquinone]",adverse effect at high doses,[1],hepatitis
same,biofilm reduction by menadione without irradiation,"E. coli biofilm; 48 h biofilm, dark",< 1 log killing
same,biofilm eradicated by menadione plus aBL,"E. coli biofilm; 48 h biofilm, 100 μg/mL menadione + aBL 250 J/cm^2 (50 mW/cm^2)",4.8 log10 CFU/mL
same,enhancement of killing in comparison with aBL alone,"E. coli biofilm; 48 h in vitro biofilm, menadione + aBL",1 log-fold
same,"bactericidal activity, aerobic vs anaerobic culture",S. aureus MN8,4 fold
same,eradication by aBL combined with menadione,MRSA,4.59 log10 CFU/mL
same,eradication by aBL combined with menadione,P. aeruginosa,4.54 log10 CFU/mL
same,response of biofilms to aBL and menadione,[2],did not respond
